Like-named read-outs stand apart in the source and are kept apart here.
Assays:
[1] = target: T1, human sGC α subunit and β subunit (Homo sapiens, UniProt Q02153); experiment: Maximum effect of sGC activating function (Ca2+ fluorescence in CHO-K1 cells expressing human sGC and mouse CNGA2); type: cell-based; conditions: increase ratio of sGC activity vs control solution at 10 μmol/L test compound
T1 construct: expressed in transfected cells
T1 sequence (Q02153 1-619): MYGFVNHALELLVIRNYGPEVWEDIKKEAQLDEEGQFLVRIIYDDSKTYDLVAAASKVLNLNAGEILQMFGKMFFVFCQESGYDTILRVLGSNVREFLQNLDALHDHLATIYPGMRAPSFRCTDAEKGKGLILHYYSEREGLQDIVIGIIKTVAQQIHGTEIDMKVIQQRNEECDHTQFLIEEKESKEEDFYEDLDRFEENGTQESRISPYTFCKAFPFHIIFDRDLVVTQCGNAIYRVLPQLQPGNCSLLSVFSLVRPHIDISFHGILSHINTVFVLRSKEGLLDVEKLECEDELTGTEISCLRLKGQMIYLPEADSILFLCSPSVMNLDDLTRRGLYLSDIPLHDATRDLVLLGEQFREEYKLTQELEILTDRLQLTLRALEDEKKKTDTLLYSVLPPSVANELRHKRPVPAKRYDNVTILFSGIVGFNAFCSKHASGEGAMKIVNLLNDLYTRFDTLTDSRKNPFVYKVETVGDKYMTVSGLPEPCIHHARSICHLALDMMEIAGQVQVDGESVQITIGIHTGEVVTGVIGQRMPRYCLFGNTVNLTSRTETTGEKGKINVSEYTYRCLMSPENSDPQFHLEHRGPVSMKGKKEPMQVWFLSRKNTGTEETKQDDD
T1 sequence (Q02108 1-690 partner): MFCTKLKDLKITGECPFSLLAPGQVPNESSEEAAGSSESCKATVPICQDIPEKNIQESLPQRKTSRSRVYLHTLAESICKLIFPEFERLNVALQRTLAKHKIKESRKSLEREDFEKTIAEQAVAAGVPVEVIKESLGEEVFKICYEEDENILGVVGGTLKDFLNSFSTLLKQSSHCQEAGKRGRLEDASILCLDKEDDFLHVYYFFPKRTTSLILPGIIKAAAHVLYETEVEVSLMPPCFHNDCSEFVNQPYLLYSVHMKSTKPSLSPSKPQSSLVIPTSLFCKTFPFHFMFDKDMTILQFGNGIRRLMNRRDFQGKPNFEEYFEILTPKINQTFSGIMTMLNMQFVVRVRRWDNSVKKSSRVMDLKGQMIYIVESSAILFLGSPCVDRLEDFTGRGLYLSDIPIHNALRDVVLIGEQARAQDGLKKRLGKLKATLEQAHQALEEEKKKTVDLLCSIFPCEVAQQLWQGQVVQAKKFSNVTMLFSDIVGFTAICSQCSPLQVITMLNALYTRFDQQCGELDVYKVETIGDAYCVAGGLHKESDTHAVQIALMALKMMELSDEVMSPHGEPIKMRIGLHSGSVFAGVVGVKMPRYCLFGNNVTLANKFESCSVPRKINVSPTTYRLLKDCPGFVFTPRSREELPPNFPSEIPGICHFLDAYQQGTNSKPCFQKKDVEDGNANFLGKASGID
Procedure: (§1) For the assay, Chinese hamster ovary cells (CHO-K1 cells) in which human sGC α subunit and β subunit and mouse cyclic nucleotide gated channel (CNGA2) are stably expressed were used.
(§2) CHO-K1 cells in which human sGC and mouse CNGA2 are stably expressed were cultured at 37° C. in F-12 medium containing 10% (v/v) fetal bovine serum (FBS), penicillin (100 U/mL), streptomycin (100 μg/mL), G418 (250 μg/mL), and zeocin (250 μg/mL). The cells were suspended in the culture medium and seeded onto a 96-well plate, and then cultured at 37° C. for 24 hours. After washing with assay buffer 1 (140 mmol/L sodium chloride, 5 mmol/L potassium chloride, 0.5 mmol/L magnesium chloride, 0.01 mmol/L calcium chloride, 10 mmol/L glucose, 0.4 mmol/L magnesium sulfate, 10 mmol/L 4-(2-hydroxyethyl)piperazin-1-ylethane sulfonic acid, and 125 μmol/L sulfinpyrazone, pH 7.4), an indicator solution in which FURA2-AM as a fluorescent Ca^2+ indicator is dissolved at concentration of 5 μmol/L in assay buffer 1 was added followed by culture for 60 minutes at 37° C. The indicator solution was removed. After washing with assay buffer 1, the test compound solution was added and incubated for 10 minutes at room temperature. The plate was placed in a fluorometer (Flex Station II, Molecular Devices, LLC), and then the intracellular calcium concentration was measured as fluorescence intensity ratio which is obtained from each excitation wavelength (excitation wavelength of 340 nm and 380 nm and detection wavelength of 510 nm).
(§3) The test compound solution was prepared by dissolving each of the test compounds in DMSO to a concentration of 10 mmol/L, and then adding the assay buffer 2 (140 mmol/L sodium chloride, 5 mmol/L potassium chloride, 0.5 mmol/L magnesium chloride, 1 mmol/L calcium chloride, 10 mmol/L glucose, 0.4 mmol/L magnesium sulfate, 10 mmol/L 4-(2-hydroxyethyl)piperazin-1-ylethane sulfonic acid, 125 μmol/L sulfinpyrazone, 100 μmol/L isobutylmethylxanthine, 10 μmol/L 1H-[1,2,4]-oxadiazole[4,3-a]quinoxalin-1-one (hereinbelow, ODQ), pH 7.4) for dilution to have test concentration of 10 μmol/L. For the evaluation of a case in which ODQ is not contained, the same evaluation was performed except that ODQ is excluded from assay buffer 2. As a control solution, a DMSO solution was used instead of the test compound solution.
(§4) The activity of the test compound corresponds to the increase ratio (%) of the sGC activity at the time of adding the test compound solution with respect to the sGC activity at the time of adding the control solution, and it was calculated by dividing the fluorescence intensity ratio at the time of adding the test compound by the fluorescence intensity ratio of the control solution and subtracting the sGC activity (100%) at the time of adding the control solution.
In this assay, intracellular cGMP concentration increases as sGC is activated, and according to opening of CNGA2 following the increase of cGMP, intracellular Ca^2+ concentration increases. Thus, SGC activation can be measured by following the change in intracellular Ca^2+ concentration. […] Thus, in the absence of ODQ, the maximum sGC activating function including the heme-dependent activation can be evaluated while the heme-independent sGC activating function can be evaluated in the presence of ODQ.

[2] = target: T1, human sGC α subunit and β subunit; experiment: Heme-independent property of sGC activating function (EC50 ratio, CHO-K1 cells expressing human sGC and mouse CNGA2); type: cell-based; conditions: EC50 in the absence of ODQ divided by EC50 in the presence of ODQ, sGC activation
Procedure: as §1, §2, §3, §4
For the representative compounds, activity was measured in the same manner as Test Example 1 at each test concentration of 0.0001, 0.001, 0.003, 0.01, 0.03, 0.1, 1, and 10 μmol/L.
The degree of heme-independent property of each test compound with regard to sGC activating function was obtained by dividing, for EC50 measured from the concentration-activation curve which has been established from the above, EC50 in the absence of ODQ by EC50 in the presence of ODQ. Specifically, the smaller the EC50 ratio is, the less the change in sGC activating function is, the change in the function being caused by the presence or absence of ODQ, and thus it is found to be more heme-independent.
EC50 value was obtained by measuring the activity of each compound to be tested at concentrations of 0.0001, 0.001, 0.003, 0.01, 0.03, 0.1, 1, and 10 μmol/L and performing the calculation using four-parameter logistics model using Assay Explorer (Accelrys).

[3] = test system: abdominal aorta ring specimen; experiment: Evaluation of blood vessel relaxing function (phenylephrine-contracted abdominal aorta ring); conditions: relaxation of rat abdominal aorta contracted with 1 μmol/L phenylephrine; without vs with 10 μmol/L ODQ
Procedure: The representative compounds of the present invention were evaluated by blood vessel relaxing function according to the following Test Example. In the assay, bleeding from the upper part of a heart of a rat (male, SD) was performed under anesthesia with pentobarbital (30 mg/kg) and then abdominal aorta was extracted. The connecting tissue adhered around blood vessel was removed from the abdominal aorta in an ice-cooled Krebs-Henseleit solution (KH solution) (118 mmol/L sodium chloride, 4.7 mmol/L potassium chloride, 1.2 mmol/L magnesium sulfate, 1.2 mmol/L potassium dihydrogen phosphate, 25 mmol/L sodium hydrogen carbonate, 2.5 mmol/L calcium chloride, and 10 mmol/L glucose, pH 7.4). After that, a ring specimen with length of 2 mm was prepared and fixed in 5 mL organ bath filled with a KH solution. The KH solution was kept at 37° C. and aerated with a mixture gas of 95% O2 and 5% CO2. The specimen was stabilized for 1 hour with static tension of 1 g. The KH solution was exchanged twice during that time. The tension on the specimen was recorded on a multi-channel recorder via pickup and amplifier. After the stabilization of the specimen, contraction was caused by using 1 μmol/L phenylephrine (Phe), and cumulative administration of each compound (0.001, 0.01, 0.03, 0.1, 0.3, 1, 3, 10, 30, 100, 1000, 10000 nmol/L) was performed. For the evaluation of a case in which 1H-1,2,4-oxadiazole-(4,3a)-quinoxalin-1-one (ODQ) is contained, 10 μmol/L ODQ was added 10 minutes before the Phe addition, and the same evaluation as above was performed.
EC50 value was calculated using four-parameter logistics model using Assay Explorer (Accelrys). The test compound solution was dissolved in DMSO such that the concentration of each test compound is 1000 times the final concentration.

[4] = ODQ not contained, read-out: Emax (%) ODQ− (Heme-dependent)
[5] = with 10 μmol/L ODQ, read-out: Emax (%) ODQ+ (Heme-independent)

| Structure (SMILES) | Emax at 10 µM [1, 4] [%] | Emax at 10 µM [1, 5] [%] | EC50 Ratio (ODQ−/ODQ+) [2] | EC50 Ratio (ODQ−/ODQ+) [3] |
| --- | --- | --- | --- | --- |
| O=C(O)CCCCN(CCc1ccccc1OCc1ccc(CCc2ccccc2)cc1)C1CCCc2nc(C(=O)O)ccc21 (stereo not drawn) [Example 6, 5-{N-(4-Carboxybutyl)-N-[2-[2-[4-(2-phenylethyl)benzyloxy]phenyl]ethyl]amino}-5,6,7,8-tetrahydroquinoline-2-carboxylic acid] | 126 | 99.9 | 0.87 | – |
| O=C(O)CCCCN(CCc1ccccc1OCc1ccc(CCc2ccccc2)cc1)C1COc2cc(C(=O)O)ccc21 (stereo not drawn) [Example 7, 3-{N-(4-Carboxybutyl)-N-[2-[2-[4-(2-phenylethyl)benzyloxy]phenyl]ethyl]amino}-2,3-dihydrobenzofuran-6-carboxylic acid] | 110 | 108 | 2.34 | – |
| O=C(O)CCCCN(CCc1ccccc1OCc1ccc(CCc2ccccc2)cc1)C1COCc2cc(C(=O)O)ccc21 (stereo not drawn) [Example 8, 4-{N-(4-Carboxybutyl)-N-[2-[2-[4-(2-phenylethyl)benzyloxy]phenyl]ethyl]amino}-isochromane-7-carboxylic acid] | 130 | 102 | 1.80 | – |
| O=C(O)CCCCN(CCc1ccccc1OCc1ccc(OCc2ccccc2)cc1)C1CCCc2cc(C(=O)O)ccc21 (stereo not drawn) [Example 14, 5-{N-[2-[2-(4-Benzyloxybenzyloxyl)phenyl]ethyl]-N-(4-carboxybutyl)amino}-5,6,7,8-tetrahydronaphthalene-2-carboxylic acid] | 99.1 | 101 | 1.73 | – |
| O=C(O)CCCCN(CCc1ccccc1OCc1ccc(/C=C/C2CCCCC2)cc1)C1CCCc2cc(C(=O)O)ccc21 (stereo not drawn) [Example 23, 5-{N-(4-Carboxybutyl)-N-[2-[2-[4-((E)-2-cyclohexylethenyl)benzyloxy]phenyl]ethyl]amino}-5,6,7,8-tetrahydronaphthalene-2-carboxylic acid] | 126 | 104 | 1.15 | – |
| O=C(O)CCCCN(CCc1ccccc1OC[C@H]1CC[C@@H](CCc2ccccc2)CC1)C1CCCc2cc(C(=O)O)ccc21 (stereo partly drawn) [Example 27, 5-{N-(4-Carboxybutyl)-N-[2-[2-[cis-4-(2-phenylethyl)cyclohexylmethoxy]phenyl]ethyl]amino}-5,6,7,8-tetrahydronaphthalene-2-carboxylic acid] | 113 | 96.6 | 1.84 | – |
| O=C(O)CCCCN(CCc1ccccc1OCc1ccc(C2CC2)cc1)C1CCCc2cc(C(=O)O)ccc21 (stereo not drawn) [Example 42, 5-{N-(4-Carboxybutyl)-N-[2-[2-(4-cyclopropylbenzyloxy)phenyl]ethyl]amino}-5,6,7,8-tetrahydronaphthalene-2-carboxylic acid] | 86.7 | 122 | – | 4.3 |
| CC(C)c1ccc(COc2ccccc2CCN(CCCCC(=O)O)C2CCCc3cc(C(=O)O)ccc32)cc1 (stereo not drawn) [Example 43, 5-{N-(4-Carboxybutyl)-N-[2-[2-(4-isopropylbenzyloxy)phenyl]ethyl]amino}-5,6,7,8-tetrahydronaphthalene-2-carboxylic acid] | 90.3 | 107 | – | 5.5 |
| C[C@@H](Oc1ccccc1CCN(CCCCC(=O)O)C1CCCc2cc(C(=O)O)ccc21)c1ccc(C(C)(C)C)cc1 (stereo partly drawn) [Example 45, 5-{N-[2-[2-[(1R)-1-(4-tert-Butylphenyl)ethoxy]phenyl]ethyl]-N-(4-carboxybutyl)amino}-5,6,7,8-tetrahydronaphthalene-2-carboxylic acid] | 95.3 | 121 | – | 3.5 |

Reference: patent US9290440B2, “Bicyclic compound” (TOA EIYO LTD., priority 2012, dated 2016)
